{"source": "patent US20230277553A1", "about": "“THERAPEUTIC COMPOSITION OF CURE-PRO COMPOUNDS FOR TARGETED DEGRADATION OF BET DOMAIN PROTEINS, AND METHODS OF MAKING AND USAGE” (CORNELL UNIVERSITY, priority 2020, published 2023)", "type_in_all_cases": "cell-based", "key": {"[1]": {"target": "BRD4 (Homo sapiens, UniProt O60885)", "test": "CURE-PRO-mediated BRD4 degradation, Western blot, HeLa cells", "parameters": "endogenous in cells; host or cells: HeLa", "conditions": "24 h, Western blot", "outline": "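HeLa cells treated 24 h with compounds in DMSO (1-10 μM, 10 μM or 100 μM each; paired monomers combined 1:1), optional 15-min pretreatment with pomalidomide, VHL298, Nutlin3a (10 μM) or MG-132/carfilzomib (1 μM). RIPA lysates, 10-20 μg protein immunoblotted for BRD4 with β-actin, ECL detection.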"}, "[2]": {"target": "T1, BRD2 (Homo sapiens, UniProt P25440)", "T1 construct": "endogenous in cells; host or cells: HCT116", "T1 sequence (P25440 whole entry)": "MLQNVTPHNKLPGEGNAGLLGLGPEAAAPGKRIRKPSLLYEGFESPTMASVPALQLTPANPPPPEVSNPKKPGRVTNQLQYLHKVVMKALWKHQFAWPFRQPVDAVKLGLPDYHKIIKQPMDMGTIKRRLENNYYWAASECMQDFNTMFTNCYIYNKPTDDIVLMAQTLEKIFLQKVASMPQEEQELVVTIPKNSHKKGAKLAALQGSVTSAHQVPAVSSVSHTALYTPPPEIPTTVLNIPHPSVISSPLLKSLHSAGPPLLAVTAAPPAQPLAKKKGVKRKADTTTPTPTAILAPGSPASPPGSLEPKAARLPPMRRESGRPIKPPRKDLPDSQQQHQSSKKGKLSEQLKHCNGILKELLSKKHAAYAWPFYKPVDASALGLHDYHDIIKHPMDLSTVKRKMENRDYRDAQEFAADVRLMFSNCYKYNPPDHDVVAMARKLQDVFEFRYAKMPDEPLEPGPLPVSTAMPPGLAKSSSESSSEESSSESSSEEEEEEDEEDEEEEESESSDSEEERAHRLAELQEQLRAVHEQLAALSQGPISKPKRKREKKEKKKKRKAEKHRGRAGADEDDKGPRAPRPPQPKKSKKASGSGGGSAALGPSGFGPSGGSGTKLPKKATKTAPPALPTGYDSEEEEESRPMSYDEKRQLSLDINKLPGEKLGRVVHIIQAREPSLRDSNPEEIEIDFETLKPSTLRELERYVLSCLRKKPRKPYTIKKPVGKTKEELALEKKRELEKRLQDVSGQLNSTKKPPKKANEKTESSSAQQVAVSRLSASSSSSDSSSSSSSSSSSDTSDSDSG", "test": "CURE-PRO-mediated BRD2 degradation with MDM2 ligands, Western blot, HCT116 cells", "conditions": "HCT116, 24 h, 1:1, 10 μM", "from_the_text": "Anti-BRD4 (13440, 1:1,000 dilution for Western Blot and 1:25 dilution for ProteinSimple); Anti-BRD2 (5848 1:1,000 dilution for Western Blot and 1:25 dilution for ProteinSimple); β-Actin (3700, 1:2,000 dilution for Western Blot), β-Actin (4970, 1:50 dilution for ProteinSimple) anti-mouse IgG-HRP, and anti-rabbit IgG-HRP antibodies were purchased Cell Signaling Technology. Anti-GAPDH (600-401-A33, 1:100 dilution for ProteinSimple) was purchased from Rockland Immunochemicals, Inc. Anti-BRD3 (sc-81202, 1:200 dilution for Western Blot) was purchased from Santa Cruz Biotechnology.\nHeLa, MCF7, or HCT116 cells (2.5-3×10^6) were treated for 24 hours with the indicated compounds solubilized in DMSO. The cells were washed in ice-cold PBS and were then lysed in RIPA lysis buffer (150 mM NaCl, 5 mM EDTA, 1% NP-40, 0.5% sodium deoxycholate, 0.1% SDS, 50 mM Tris, pH 8.0.) with Roche protease inhibitor complete cocktail and phosphatase inhibitors (10 mM sodium fluoride, 10 mM sodium pyrophosphate, 1 mM sodium orthovanadate and 20 mM β-glycerophosphate). The total protein concentrations were determined by Bradford Protein Assay and 10-20 μg of protein was loaded onto 4-15% Tris-Glycine gradient gels (Biorad). […] Signal was detected with ECL Western Blotting Substrate (Pierce) and X-ray film processed with a Konica SRX-101 X-ray film processor or captured by Bio-Rad's Chemidoc Imaging system. […]"}, "[3]": {"test_system": "MV-4-11 cells", "test": "CellTiter-Glo cell viability, MV-4-11 cells", "method": "CellTiter-Glo® 2.0 Cell Viability Assay (Promega) was carried out following the manufacturer's recommendations. Cells were seeded at a density of 1000 cells/well in a white 96 well plates (Corning, #3917) in a total volume of 100 μl with respective monomers, combinations of BRD ligands together with E3 ligase ligands or vehicle control treatment. After a 72 h incubation, 100 ul of the CellTiter-Glo® substrate was added per well and luminescence was read on a Spectramax M5 (Molecular Devices). Dose-response curves were generated using Graphpad Prism software.\nMV-4-11 cells (5×104) were treated for 24 hours with the sample compounds solubilized in DMSO. The compounds were added at 1 nM-100 μM each. Cellular viability was determined using the CellTiter-Glo® Luminescent Cell Viability Assay (Promega) described above. FIGS. 19-22 depict the CURE-PRO-mediated loss of cellular viability for BRD monomers (JQ1 derivatives comprising of catechol linkers), and CRBN ligand, 8049 (pomalidomide derivatives comprising boronic acid linkers) combined in a 1:1 ratio.\nMV-4-11 cells (1×104) were treated for 72 hours with the compounds solubilized in DMSO. Compounds were added at 10 nM-100 μM each. Cellular viability was determined using the CellTiter-Glo® Luminescent Cell Viability Assay (Promega) described above. FIGS. 47-54 depict the CURE-PRO-mediated loss of cellular viability for BRD monomers (JQ1 derivatives comprising of boronic acid linkers), and CRBN ligands, 8046, 8047 and 8066 (pomalidomide derivatives comprising diol linkers) combined in a 1:1 ratio."}}, "note": "“Also recorded” adds a separate entry of the source.", "data": [{"smiles": "CCNC(=O)C[C@@H]1N=C(c2ccc(Cl)cc2)c2cc(OCCOCCNC(=O)c3cccc(O)c3O)ccc2-n2c(C)nnc21", "note": "[BRD-N39, N-(2-(2-(((4S)-6-(4-chlorophenyl)-4-(2-(ethylamino)-2-oxoethyl)-1-methyl-4H-benzo[f][1,2,4]triazolo[4,3-a][1,4]diazepin-8-yl)oxy)ethoxy)ethyl)-2,3-dihydroxybenzamide]", "values": [{"measurement": "BRD4 degradation, co-treatment with CRBN ligand 8048", "setting": "[1]; 1:1 with 8048, 1-10 μM each", "value": "causes degradation of BRD4; also recorded: Degradation is noted"}, {"measurement": "BRD4 degradation, co-treatment with CRBN ligand 8049", "setting": "[1]; 1:1 with 8049, 1-10 μM each", "value": "no evidence of BRD4 degradation"}, {"measurement": "BRD4 degradation, BRD ligand alone", "setting": "[1]; BRD monomer alone", "value": "no degradation of BRD4"}, {"measurement": "BRD2 degradation, in combination with MDM2 ligands 8310 and 8312", "setting": "[2]", "value": "BRD2 to a lesser extent; also recorded: Degradation is evident"}]}, {"smiles": "CCNC(=O)C[C@@H]1N=C(c2ccc(Cl)cc2)c2cc(OCCCCC(=O)Nc3cccc(B(O)O)c3)ccc2-n2c(C)nnc21", "note": "[BRD-E20, (3-(5-(((4S)-6-(4-chlorophenyl)-4-(2-(ethylamino)-2-oxoethyl)-1-methyl-4H-benzo[f][1,2,4]triazolo[4,3-a][1,4]diazepin-8-yl)oxy)pentanamido)phenyl)boronic acid]", "values": [{"measurement": "BRD4 degradation, co-treatment with CRBN ligand 8046", "setting": "[1]; 1:1 with 8046, 10 μM each", "value": "causes degradation of BRD4; also recorded: Degradation is noted"}, {"measurement": "BRD4 degradation, co-treatment with CRBN ligand 8066", "setting": "[1]; 1:1 with 8066, 10 μM each (BRD-E10: 10 and 100 μM)", "value": "causes degradation of BRD4; also recorded: Degradation is noted"}, {"measurement": "Loss of cellular viability / toxicity, cotreated with cereblon ligands 8046, 8047 and 8066 vs monomers alone", "setting": "[3]; MV-4-11, 72 hours, 1:1, 10 nM-100 μM each", "value": "reduced viability; also recorded: increased toxicity"}]}, {"smiles": "CCNC(=O)C[C@@H]1N=C(c2ccc(Cl)cc2)c2cc(OCCNC(=O)c3cccc(O)c3O)ccc2-n2c(C)nnc21", "note": "[BRD-N25]", "values": [{"measurement": "BRD2 degradation, in combination with MDM2 ligands 8310 and 8312", "setting": "[2]", "value": "BRD2 to a lesser extent; also recorded: Degradation is evident"}, {"measurement": "Loss of cellular viability / toxicity, co-dosed with CRBN ligand 8049", "setting": "[3]; MV-4-11, 24 hours, 1:1 with 8049, 1 nM-100 μM each", "value": "concentration-dependent loss in cellular viability; also recorded: increased toxicity"}]}]}
